In paper PMC4035740 (The Journal of General Physiology, 2014):
Substitutions are numbered along the chain they refer to. Like-named read-outs stand apart in the source and are kept apart here.

Experiments:
Format in all cases: cell-based
[1] = target: T1, rat P2X2 tandem trimer WT–WT–K308A (Rattus norvegicus, UniProt P49653, K308A); assay: ATP dose–response, two-electrode voltage clamp in Xenopus oocytes, WT–WT–K308A
T1 sequence (P49653 1-472) 1: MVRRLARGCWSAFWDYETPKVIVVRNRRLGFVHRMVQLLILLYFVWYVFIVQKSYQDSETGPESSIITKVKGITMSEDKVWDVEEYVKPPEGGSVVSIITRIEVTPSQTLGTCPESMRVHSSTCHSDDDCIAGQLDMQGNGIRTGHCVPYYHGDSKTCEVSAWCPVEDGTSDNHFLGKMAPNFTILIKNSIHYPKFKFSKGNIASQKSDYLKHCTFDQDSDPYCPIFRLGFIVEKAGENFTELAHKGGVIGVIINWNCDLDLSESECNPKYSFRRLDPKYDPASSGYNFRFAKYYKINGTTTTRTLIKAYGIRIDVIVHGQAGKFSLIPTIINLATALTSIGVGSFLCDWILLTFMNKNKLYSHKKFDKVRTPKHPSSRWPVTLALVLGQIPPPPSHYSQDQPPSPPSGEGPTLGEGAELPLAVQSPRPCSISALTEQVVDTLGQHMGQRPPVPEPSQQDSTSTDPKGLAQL
T1 sequence (P49653 1-472) 2: T1 sequence (P49653 1-472) 1
T1 sequence (P49653 1-472 K308A): T1 sequence (P49653 1-472) 1 with K308A

[2] = target: T2, rat P2X2 tandem trimer WT–K308A–WT (Rattus norvegicus, UniProt P49653, K308A); assay: ATP dose–response, two-electrode voltage clamp in Xenopus oocytes, WT–K308A–WT
T2 sequence (P49653 1-472) 1: T1 sequence (P49653 1-472) 1
T2 sequence (P49653 1-472 K308A): T1 sequence (P49653 1-472) 1 with K308A
T2 sequence (P49653 1-472) 3: T1 sequence (P49653 1-472) 1

[3] = target: T3, rat P2X2 tandem trimer K308A–WT–WT (Rattus norvegicus, UniProt P49653, K308A); assay: ATP dose–response, two-electrode voltage clamp in Xenopus oocytes, K308A–WT–WT
T3 sequence (P49653 1-472 K308A): T1 sequence (P49653 1-472) 1 with K308A
T3 sequence (P49653 1-472) 2: T1 sequence (P49653 1-472) 1
T3 sequence (P49653 1-472) 3: T1 sequence (P49653 1-472) 1

[4] = target: T4, rat P2X2 tandem trimer D315A–D315A–WT (Rattus norvegicus, UniProt P49653, D315A); details: at −160 mV
T4 sequence (P49653 1-472 D315A) 1: T1 sequence (P49653 1-472) 1 with D315A
T4 sequence (P49653 1-472 D315A) 2: T1 sequence (P49653 1-472) 1 with D315A
T4 sequence (P49653 1-472): T1 sequence (P49653 1-472) 1

[5] = target: T5, rat P2X2 tandem trimer D315A–WT–WT (Rattus norvegicus, UniProt P49653, D315A); assay: ATP dose–response, two-electrode voltage clamp in Xenopus oocytes, D315A–WT–WT
T5 sequence (P49653 1-472 D315A): T1 sequence (P49653 1-472) 1 with D315A
T5 sequence (P49653 1-472) 2: T1 sequence (P49653 1-472) 1
T5 sequence (P49653 1-472) 3: T1 sequence (P49653 1-472) 1

[6] = target: T6, rat P2X2 tandem trimer T339S–T339S–T339S (Rattus norvegicus, UniProt P49653, T339S)
T6 sequence (P49653 1-472 T339S) 1: T1 sequence (P49653 1-472) 1 with T339S
T6 sequence (P49653 1-472 T339S) 2: T1 sequence (P49653 1-472) 1 with T339S
T6 sequence (P49653 1-472 T339S) 3: T1 sequence (P49653 1-472) 1 with T339S

[7] = target: T7, rat P2X2 tandem trimer WT–K308A&K69A–WT (Rattus norvegicus, UniProt P49653, K308A/K69A); assay: Hetero-assembly test, activation by ATP, WT–K308A&K69A–WT; details: 1 mM [ATP], days 1 and 2 after RNA injection
T7 sequence (P49653 1-472) 1: T1 sequence (P49653 1-472) 1
T7 sequence (P49653 1-472 K69A/K308A): T1 sequence (P49653 1-472) 1 with K69A, K308A
T7 sequence (P49653 1-472) 3: T1 sequence (P49653 1-472) 1

[8] = target: T8, rat P2X2 tandem trimer WT–T339S–WT (Rattus norvegicus, UniProt P49653, T339S); assay: ATP dose–response, two-electrode voltage clamp in Xenopus oocytes, WT–T339S–WT
T8 sequence (P49653 1-472) 1: T1 sequence (P49653 1-472) 1
T8 sequence (P49653 1-472 T339S): T1 sequence (P49653 1-472) 1 with T339S
T8 sequence (P49653 1-472) 3: T1 sequence (P49653 1-472) 1

rat P2X2 D315A = target: T9, rat P2X2 D315A (Rattus norvegicus, UniProt P49653, D315A); assay: ATP dose–response, two-electrode voltage clamp in Xenopus oocytes, D315A; details: at −160 mV
T9 sequence (P49653 1-472 D315A): T1 sequence (P49653 1-472) 1 with D315A

[9] = target: T10, rat P2X2 tandem trimer K308A&K69A–WT–WT (Rattus norvegicus, UniProt P49653, K308A/K69A); assay: Hetero-assembly test, activation by ATP, K308A&K69A–WT–WT; details: 1 mM [ATP], days 1 and 2 after RNA injection
T10 sequence (P49653 1-472 K69A/K308A): T1 sequence (P49653 1-472) 1 with K69A, K308A
T10 sequence (P49653 1-472) 2: T1 sequence (P49653 1-472) 1
T10 sequence (P49653 1-472) 3: T1 sequence (P49653 1-472) 1

[10] = target: T11, rat P2X2 tandem trimer D315A–D315A–D315A (Rattus norvegicus, UniProt P49653, D315A); details: at −160 mV
T11 sequence (P49653 1-472 D315A) 1: T1 sequence (P49653 1-472) 1 with D315A
T11 sequence (P49653 1-472 D315A) 2: T1 sequence (P49653 1-472) 1 with D315A
T11 sequence (P49653 1-472 D315A) 3: T1 sequence (P49653 1-472) 1 with D315A

[11] = target: T12, rat P2X2 tandem trimer WT–T339S–T339S (Rattus norvegicus, UniProt P49653, T339S)
T12 sequence (P49653 1-472): T1 sequence (P49653 1-472) 1
T12 sequence (P49653 1-472 T339S) 2: T1 sequence (P49653 1-472) 1 with T339S
T12 sequence (P49653 1-472 T339S) 3: T1 sequence (P49653 1-472) 1 with T339S

rat P2X2 K308A = target: T13, rat P2X2 K308A (Rattus norvegicus, UniProt P49653, K308A); assay: ATP activation of the K308A mutant channel; details: K308A mutation, very high concentrations of ATP (>3 mM)
T13 sequence (P49653 1-472 K308A): T1 sequence (P49653 1-472) 1 with K308A

[12] = target: T14, rat P2X2 tandem trimer WT–WT–WT (Rattus norvegicus, UniProt P49653); assay: ATP dose–response, two-electrode voltage clamp in Xenopus oocytes, WT–WT–WT
T14 sequence (P49653 1-472) 1: T1 sequence (P49653 1-472) 1
T14 sequence (P49653 1-472) 2: T1 sequence (P49653 1-472) 1
T14 sequence (P49653 1-472) 3: T1 sequence (P49653 1-472) 1

[13] = target: T15, rat P2X2 tandem trimer WT–WT–K308A&K69A (Rattus norvegicus, UniProt P49653, K308A/K69A); assay: Hetero-assembly test, activation by ATP, WT–WT–K308A&K69A; details: 1 mM [ATP], days 1 and 2 after RNA injection
T15 sequence (P49653 1-472) 1: T1 sequence (P49653 1-472) 1
T15 sequence (P49653 1-472) 2: T1 sequence (P49653 1-472) 1
T15 sequence (P49653 1-472 K69A/K308A): T1 sequence (P49653 1-472) 1 with K69A, K308A

rat P2X2 WT = target: T16, rat P2X2 WT (Rattus norvegicus, UniProt P49653); assay: ATP dose–response, two-electrode voltage clamp in Xenopus oocytes, WT
T16 sequence (P49653 1-472): T1 sequence (P49653 1-472) 1

EC50 [1]: 33.3 ± 1.65 µM
Hill coefficient ([1]; WT–WT–K308A, at −160 mV, mean ± SEM): 1.6 ± 1.4
EC50 [2]: 22.9 ± 1.8 µM
EC50 [3]: 42.3 ± 2.2 µM
Hill coefficient ([3]; K308A–WT–WT, at −160 mV, mean ± SEM): 1.7 ± 0.18
EC50 ([4]; EC50 (1), first phase): 3.15 ± 0.9 µM
EC50 ([4]; EC50 (2), second phase): 794 ± 12 µM
EC50 [5]: 6.02 ± 1.1 µM
Hill ([5]; D315A–WT–WT, at −160 mV): 1.4 ± 0.1
EC50 [6]: 2.4 ± 0.4 µM
Hill ([6]; T339S–T339S–T339S, at −160 mV): 1.5 ± 0.3
activation in response to ATP [7]: did not show any prominent activation
EC50 [8]: 12.2 ± 1.2 µM
Hill ([8]; WT–T339S–WT, at −160 mV): 1.5 ± 0.9
EC50 (rat P2X2 D315A; EC50 (1), first phase of biphasic dose–response): 1.2 ± 0.6 µM
EC50 (rat P2X2 D315A; EC50 (2), second phase of biphasic dose–response): 89.1 ± 1.48 µM
Hill (1) (rat P2X2 D315A; first phase): 2.4 ± 0.7
activation in response to ATP [9]: did not show any prominent activation
EC50 ([10]; EC50 (1), first phase): 1.5 ± 0.8 µM
EC50 ([10]; EC50 (2), second phase): 130 ± 5 µM
Hill (1) ([10]; first phase): 3.7 ± 0.6
EC50 [11]: 6 ± 0.4 µM
Hill ([11]; WT–T339S–T339S, at −160 mV): 1.5 ± 0.2
channel response to ATP (rat P2X2 K308A): unresponsive
EC50 [12]: 19.1 ± 2 µM
activation in response to ATP [13]: did not show any prominent activation
EC50 (rat P2X2 WT): 14.5 ± 1.2 µM
Hill coefficient (rat P2X2 WT; WT, at −160 mV, Xenopus oocytes, mean ± SEM): 1.7 ± 0.2
Compound: Nc1ncnc2c1ncn2[C@@H]1O[C@H](COP(=O)(O)OP(=O)(O)OP(=O)(O)O)[C@@H](O)[C@H]1O [ATP, adenosine triphosphate]
